Measured values taken from US10815238B2, “Antimicrobial compounds and methods of making and using the same” (BIOVERSYS AG, priority 2013, dated 2020).
Read-outs that look alike come from different tables or passages of the source.

Legend:
[1] = test system: Eschericia coli (E. coli) strain ATCC25922; experiment: Standard microdilution assay, MIC against E. coli ATCC25922; assay type: cell-based; conditions: Escherichia coli
Method in brief: (§1)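 Scoring as + or − used a 16 micrograms/mL cutoff on minimum inhibitory concentrations. These came from CLSI-standard microdilution, quality-controlled with reference strains tested in the same run.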

[2] = test system: Staphylococcus aureus (S. aureus) 11540 strain; experiment: Standard microdilution assay, MIC against S. aureus 11540; assay type: cell-based; conditions: read-out: MIC S. aureus
Method in brief: as §1

[3] = E. coli strain ATCC25922, standard microdilution assay, cutoff 16 micrograms/mL, read-out: MIC E. Coli
[4] = S. aureus 11540 strain, standard microdilution assay, cutoff 16 micrograms/mL

| MIC [1, 3] | MIC [2, 4] | SMILES | MIC ([1]; ATCC25922, read-out: MIC E. Coli) | MIC [2] |
| --- | --- | --- | --- | --- |
| < 16 µg/mL | < 16 µg/mL | C[C@H](N)CCCc1cc(Cl)c(F)c(-c2cc3cn(-c4ccc([C@H](N)CCNC(=N)N)cc4)c(=O)nc3[nH]2)c1 [Compound 442] | – | – |
| < 16 µg/mL | < 16 µg/mL | C[C@H](N)CCCc1cc(OC(F)(F)F)c(F)c(-c2cc3cn(-c4ccc([C@H](N)CCNC(=N)N)cc4)c(=O)nc3[nH]2)c1 [Compound 443] | – | – |
| < 16 µg/mL | < 16 µg/mL | C[C@H](N)CCCc1cc(Cl)c(F)c(-c2cc3cn(-c4ccc([C@H]5CCC[C@@H](CCNC(=N)N)N5)cc4)c(=O)nc3[nH]2)c1 [Compound 444] | – | – |
| < 16 µg/mL | < 16 µg/mL | C[C@H](NCCCNC(=N)N)c1ccc(-n2cc3cc(-c4cc([C@H]5CC[C@@H](CN)O5)cc(Cl)c4F)[nH]c3nc2=O)cc1 [Compound 445] | – | – |
| < 16 µg/mL | < 16 µg/mL | C[C@H](NCCCNC(=N)N)c1ccc(-n2cc3cc(-c4cc([C@@H]5CC[C@H](CN)O5)cc(Cl)c4F)[nH]c3nc2=O)cc1 [Compound 446] | – | – |
| < 16 µg/mL | < 16 µg/mL | C[C@H](N)CCCc1cc(Cl)c(F)c(-c2cc3cn(-c4ccc(C(O)[C@@H]5C[C@@H](NC(=N)N)CN5)cc4)c(=O)nc3[nH]2)c1 (some centres unmarked) [Compound 447] | – | – |
| < 16 µg/mL | < 16 µg/mL | C[C@H](N)CCCc1cc(OC(F)(F)F)c(F)c(-c2cc3cn(-c4ccc(C(O)[C@@H]5C[C@@H](NC(=N)N)CN5)cc4)c(=O)nc3[nH]2)c1 (some centres unmarked) [Compound 448] | – | – |
| > 16 µg/mL | < 16 µg/mL | C[C@H](N)CCCc1cc(OC(F)(F)F)c(F)c(-c2cc3cn(-c4ccc(C(O)[C@@H]5C[C@@H](N)CN5)cc4)c(=O)nc3[nH]2)c1 (some centres unmarked) [Compound 449] | – | – |
| < 16 µg/mL | < 16 µg/mL | C[C@H](CCNC(=N)N)NCc1ccc(-n2cc3cc(-c4cc(CCC[C@@H](N)CO)cc(Cl)c4F)[nH]c3nc2=O)cc1 [Compound 450] | – | – |
| < 16 µg/mL | < 16 µg/mL | C[C@H](N)CCCc1cc(Cl)c(F)c(-c2cc3cn(-c4ccc([C@H]5COC[C@@H](CNC(=N)N)N5)cc4)c(=O)nc3[nH]2)c1 [Compound 451] | – | – |
| > 16 µg/mL | > 16 µg/mL | C[C@H](N)CCCc1cc(Cl)c(F)c(-c2cc3cn(-c4ccc([C@@H]5COC[C@@H](CO)N5)cc4)c(=O)nc3[nH]2)c1 [Compound 452] | – | – |
| > 16 µg/mL | > 16 µg/mL | C[C@H](N)CCCc1cc(OC(F)(F)F)c(F)c(-c2cc3cn(-c4ccc([C@@H]5COC[C@@H](CO)N5)cc4)c(=O)nc3[nH]2)c1 [Compound 453] | – | – |
| < 16 µg/mL | < 16 µg/mL | C[C@H](N)CCCc1cc(Cl)c(F)c(-c2cc3cn(-c4ccc([C@H](N)CCCN)cc4)c(=O)nc3[nH]2)c1 [Compound 454] | – | – |
| < 16 µg/mL | < 16 µg/mL | C[C@H](N)CCCc1cc(OC(F)(F)F)c(F)c(-c2cc3cn(-c4ccc([C@H](N)CCCN)cc4)c(=O)nc3[nH]2)c1 [Compound 455] | – | – |
| < 16 µg/mL | < 16 µg/mL | C[C@H](N)CCCc1cc(Cl)c(F)c(-c2cc3cn(-c4ccc([C@H](N)CCCNC(=N)N)cc4)c(=O)nc3[nH]2)c1 [Compound 456] | – | – |
| < 16 µg/mL | < 16 µg/mL | C[C@H](N)CCCc1cc(OC(F)(F)F)c(F)c(-c2cc3cn(-c4ccc([C@H](N)CCCNC(=N)N)cc4)c(=O)nc3[nH]2)c1 [Compound 457] | – | – |
| > 16 µg/mL | < 16 µg/mL | C[C@H](N)CCCc1cc(Cl)c(F)c(-c2cc3cn(-c4ccc(C5(N)CNC5)cc4)c(=O)nc3[nH]2)c1 [Compound 458] | – | – |
| < 16 µg/mL | < 16 µg/mL | C[C@H](N)CCCc1cc(Cl)c(F)c(-c2cc3cn(-c4ccc(C(=O)NCCCNC(=N)N)cc4)c(=O)nc3[nH]2)c1 [Compound 459] | – | – |
| < 16 µg/mL | < 16 µg/mL | C[C@H](N)CCCc1cc(Cl)c(F)c(-c2cc3cn(-c4ccc(C(=N)NCCCN)cc4)c(=O)nc3[nH]2)c1 [Compound 460] | – | – |
| < 16 µg/mL | < 16 µg/mL | C[C@H](N)CCCc1cc(OC(F)(F)F)c(F)c(-c2cc3cn(-c4ccc(C(=O)NCCCNC(=N)N)cc4)c(=O)nc3[nH]2)c1 [Compound 461] | – | – |
| < 16 µg/mL | < 16 µg/mL | C[C@H](N)CCCc1cc(OC(F)(F)F)c(F)c(-c2cc3cn(-c4ccc(C(=N)NCCCN)cc4)c(=O)nc3[nH]2)c1 [Compound 462] | – | – |
| < 16 µg/mL | < 16 µg/mL | C[C@H](N)CCCc1cc(Cl)c(F)c(-c2cc3cn(-c4ccc([C@@H]5COC[C@@H](CN)N5)cc4)c(=O)nc3[nH]2)c1 [Compound 464] | – | – |
| < 16 µg/mL | < 16 µg/mL | C[C@H](N)CCCc1cc(Cl)c(F)c(-c2cc3cn(-c4ccc([C@@H]5COC[C@@H](CNC(=N)N)N5)cc4)c(=O)nc3[nH]2)c1 [Compound 465] | – | – |
| < 16 µg/mL | < 16 µg/mL | C[C@H](N)CCCc1cc(OC(F)(F)F)c(F)c(-c2cc3cn(-c4ccc([C@@H]5COC[C@@H](CNC(=N)N)N5)cc4)c(=O)nc3[nH]2)c1 [Compound 466] | – | – |

| MIC [1, 3] | MIC [2, 4] | SMILES | MIC ([1]; ATCC25922, read-out: MIC E. Coli) | MIC [2] |
| --- | --- | --- | --- | --- |
| < 16 µg/mL | < 16 µg/mL | C[C@H](N)CCCc1cc(Cl)c(F)c(-c2cc3cn(-c4ccc([C@H]5CC(CCNC(=N)N)CN5)cc4)c(=O)nc3[nH]2)c1 (some centres unmarked) [Compound 469] | – | – |
| < 16 µg/mL | < 16 µg/mL | C[C@H](N)CCCc1cc(OC(F)(F)F)c(F)c(-c2cc3cn(-c4ccc([C@H]5CC(CCNC(=N)N)CN5)cc4)c(=O)nc3[nH]2)c1 (some centres unmarked) [Compound 470] | – | – |
| < 16 µg/mL | < 16 µg/mL | C[C@H](N)CCCc1cc(Cl)c(F)c(-c2cc3cn(-c4ccc(C(O)CNC(=N)N)cc4)c(=O)nc3[nH]2)c1 (some centres unmarked) [Compound 471] | – | – |
| < 16 µg/mL | < 16 µg/mL | C[C@H](N)CCCc1cc(OC(F)(F)F)c(F)c(-c2cc3cn(-c4ccc(C(O)CNC(=N)N)cc4)c(=O)nc3[nH]2)c1 (some centres unmarked) [Compound 472] | – | – |
| < 16 µg/mL | < 16 µg/mL | C[C@H](N)CCCc1cc(Cl)c(F)c(-c2cc3cn(-c4ccc(C(N)CNC(=N)N)cc4)c(=O)nc3[nH]2)c1 (some centres unmarked) [Compound 473] | – | – |
| < 16 µg/mL | < 16 µg/mL | C[C@H](N)CCCc1cc(OC(F)(F)F)c(F)c(-c2cc3cn(-c4ccc(C(N)CNC(=N)N)cc4)c(=O)nc3[nH]2)c1 (some centres unmarked) [Compound 474] | – | – |
| < 16 µg/mL | < 16 µg/mL | C[C@H](N)CCCc1cc(Cl)c(F)c(-c2cc3cn(-c4ccc(C(=O)NCCCN)cc4)c(=O)nc3[nH]2)c1 [Compound 475] | – | – |
| < 16 µg/mL | < 16 µg/mL | C[C@H](NCCCNC(=N)N)c1ccc(-n2cc3cc(-c4cc(CCC[C@H](N)CO)cc(Cl)c4F)[nH]c3nc2=O)cc1 [Compound 476] | – | – |
| < 16 µg/mL | < 16 µg/mL | C[C@H](N)CCCc1cc(Cl)c(F)c(-c2cc3cn(-c4ccc(C(=N)NCCCNC(=N)N)cc4)c(=O)nc3[nH]2)c1 [Compound 477] | – | – |
| > 16 µg/mL | > 16 µg/mL | C[C@H](N)CCCc1cc(Cl)c(F)c(-c2cc3cn(-c4ccc([C@@H]5CCC[C@@H](CCn6ccnn6)N5)cc4)c(=O)nc3[nH]2)c1 [Compound 478] | – | – |
| > 16 µg/mL | > 16 µg/mL | C[C@H](N)CCCc1cc(OC(F)(F)F)c(F)c(-c2cc3cn(-c4ccc([C@@H]5CCC[C@@H](CCn6ccnn6)N5)cc4)c(=O)nc3[nH]2)c1 [Compound 479] | – | – |
| < 16 µg/mL | < 16 µg/mL | C[C@H](N)CCCc1cc(OC(F)(F)F)c(F)c(-c2cc3cn(-c4ccc(C(CO)CNC(=N)N)cc4)c(=O)nc3[nH]2)c1 (some centres unmarked) [Compound 480] | – | – |
| < 16 µg/mL | < 16 µg/mL | C[C@H](N)CCCc1cc(OC(F)(F)F)c(F)c(-c2cc3cn(-c4ccc([C@H](C)NCCC(CC5CNC5)NC(=N)N)cc4)c(=O)nc3[nH]2)c1 (some centres unmarked) [Compound 481] | – | – |
| < 16 µg/mL | < 16 µg/mL | N=C(N)NCC[C@H]1CC[C@H](c2ccc(-n3cc4cc(-c5cc(CCC[C@@H](N)CO)cc(Cl)c5F)[nH]c4nc3=O)cc2)N1 [Compound 482] | – | – |
| < 16 µg/mL | < 16 µg/mL | NCC[C@@H]1CCC[C@@H](c2ccc(-n3cc4cc(-c5cc(CCC[C@@H](N)CO)cc(Cl)c5F)[nH]c4nc3=O)cc2)N1 [Compound 483] | – | – |
| < 16 µg/mL | < 16 µg/mL | N=C(N)NCC[C@@H]1CCC[C@@H](c2ccc(-n3cc4cc(-c5cc(CCC[C@@H](N)CO)cc(Cl)c5F)[nH]c4nc3=O)cc2)N1 [Compound 484] | – | – |
| < 16 µg/mL | < 16 µg/mL | C[C@H](N)CCCc1cc(-c2cc3cn(-c4ccc([C@@H]5CCC[C@@H](CCN)N5)cc4)c(=O)nc3[nH]2)cc(C(F)(F)F)c1 [Compound 485] | – | – |
| < 16 µg/mL | < 16 µg/mL | C[C@H](N)CCCc1cc(-c2cc3cn(-c4ccc([C@@H]5CCC[C@@H](CCNC(=N)N)N5)cc4)c(=O)nc3[nH]2)cc(C(F)(F)F)c1 [Compound 486] | – | – |
| < 16 µg/mL | < 16 µg/mL | C[C@H](NCCCNC(=N)N)c1ccc(-n2cc3cc(-c4cc(CCC[C@@H](N)COP(=O)(O)O)cc(Cl)c4F)[nH]c3nc2=O)cc1 [Compound 487] | – | – |
| – | – | C[C@H](NCCCNC(=N)N)c1ccc(-n2cc3cc(-c4cc(CCC[C@@H](N)COP(=O)(Oc5ccccc5)Oc5ccccc5)cc(Cl)c4F)[nH]c3nc2=O)cc1 [Compound 488] | < 16 µg/mL | < 16 µg/mL |
| > 16 µg/mL | > 16 µg/mL | C[C@H](N)CCCc1cc(Cl)c(F)c(-c2cc3cn(-c4ccc([C@@H]5CCC[C@@H](Cc6cnn[nH]6)N5)cc4)c(=O)nc3[nH]2)c1 [Compound 489] | – | – |
| < 16 µg/mL | < 16 µg/mL | C[C@H](N)CCCc1cc(Cl)c(F)c(-c2cc3cn(-c4ccc(CN[C@H](CCN)CNc5nccs5)cc4)c(=O)nc3[nH]2)c1 [Compound 490] | – | – |
| < 16 µg/mL | < 16 µg/mL | C[C@H](N)CCCc1cc(Cl)c(F)c(-c2cc3cn(-c4ccc(CN[C@H](CCNC(=N)N)CNc5nccs5)cc4)c(=O)nc3[nH]2)c1 [Compound 491] | – | – |

| SMILES | MIC [1, 3] | MIC [2, 4] | MIC ([1]; ATCC25922, read-out: MIC E. Coli) | MIC [2] |
| --- | --- | --- | --- | --- |
| CCOP(=O)(OCC)OC[C@H](N)CCCc1cc(Cl)c(F)c(-c2cc3cn(-c4ccc([C@H](C)NCCCNC(=N)N)cc4)c(=O)nc3[nH]2)c1 [Compound 467] | < 16 µg/mL | < 16 µg/mL | – | – |
| CCOP(=O)(OCC)OC[C@@H]1COC[C@H](c2ccc(-n3cc4cc(-c5cc(CCC[C@H](C)N)cc(Cl)c5F)[nH]c4nc3=O)cc2)N1 [Compound 468] | > 16 µg/mL | < 16 µg/mL | – | – |
